{"source": "paper PMC11587516", "about": "(ACS Chemical Neuroscience, 2024)", "key": {"[1]": {"target": "T1, hGAT1 (Homo sapiens, UniProt P30531)", "T1 construct": "expressed in transfected cells", "test": "[3H]GABA uptake assay, CHO cells stably expressing hGAT1", "format": "cell-based"}, "[2]": {"target": "T2, hBGT1 E52A (Homo sapiens, UniProt P48065, E52A)", "T2 construct": "host or cells: tsA201 cells (transformed HEK293), transient expression", "T2 sequence (P48065 1-614 E52A)": "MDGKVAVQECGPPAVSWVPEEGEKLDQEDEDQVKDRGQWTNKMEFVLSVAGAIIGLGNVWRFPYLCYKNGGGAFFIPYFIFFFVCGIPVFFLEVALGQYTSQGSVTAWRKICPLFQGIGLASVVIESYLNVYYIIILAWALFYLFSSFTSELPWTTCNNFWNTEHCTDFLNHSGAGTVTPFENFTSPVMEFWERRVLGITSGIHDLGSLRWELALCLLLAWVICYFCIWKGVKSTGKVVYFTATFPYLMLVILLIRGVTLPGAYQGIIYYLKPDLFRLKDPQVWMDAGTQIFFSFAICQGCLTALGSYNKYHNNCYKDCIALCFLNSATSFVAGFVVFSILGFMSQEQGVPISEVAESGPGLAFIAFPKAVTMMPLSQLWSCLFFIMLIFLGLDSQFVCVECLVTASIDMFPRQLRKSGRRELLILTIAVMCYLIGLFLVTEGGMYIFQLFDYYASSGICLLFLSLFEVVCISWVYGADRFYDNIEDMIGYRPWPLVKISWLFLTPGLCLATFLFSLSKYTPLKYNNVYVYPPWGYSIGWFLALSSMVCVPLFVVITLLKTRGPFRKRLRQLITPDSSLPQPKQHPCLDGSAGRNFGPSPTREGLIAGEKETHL", "test": "[3H]GABA uptake assay, hBGT1 mutant E52A in tsA201 cells", "format": "cell-based", "procedure": "To validate the molecular modeling, particularly the crucial interactions with the Glu52 and Gln299 residues, the activity of compound 9 was tested on the following hBGT1 mutants: E52A, E52Y, Q299L, and the double mutant E52A+Q299L (Figure 5 and Table 1).[14]\nThe CHO cells were placed in 96-well plates (approximately 50,000 cells/well) for about 24 h before the experiment. […] After incubation, cells were washed 3 times with 100 μL/well ice-cold assay buffer, 150 μL/well MicroScint20 (PerkinElmer) was subsequently added before the plate was shaken for at least 1 h. The radioactivity of each well of the plate was measured on a TopCount NXT scintillation counter. […] Data presented are the pooled data of at least three independent experiments with three technical replicates if not stated otherwise in figure legends. Concentration–response curves were fitted by nonlinear regression to the sigmoidal concentration–response model with GraphPad Prism v 9.0.\nThe tsA201 cell line (a transformed HEK293 cell line) has been described previously and was cultured accordingly.[20] The tsA201 cells used for transient expression of hBGT1 mutants were transfected with DNA constructs (8 μg per 10 cm plate) using 40 μL of PolyFect transfection reagent according to the manufacturer’s protocol (Qiagen). […]"}}, "note": "pIC50: −log10 of the molar value."}
{"smiles": "NC12CC(C(=O)O)(C1)C2", "note": "[Compound 9]", "values": [{"measurement": "pIC50", "setting": "[1]", "value": "< 4.00"}, {"measurement": "inhibitory effect on [3H]GABA uptake", "setting": "[1]; 100 μM, CHO cells", "value": "no inhibitory effect"}, {"measurement": "pIC50", "setting": "[2]", "value": 4.19}, {"measurement": "decrease in activity compared with wild type hBGT1", "setting": "[2]; E52A vs wt", "value": "~2", "unit": "fold"}]}
